The values that follow come from patent US6673770B1, “Peptides for the treatment, prophylaxis, diagnosis and monitoring of autoimmune diseases” (Upither B.V., priority 1998, dated 2004).

The target of assay [1] is T1, MHC class II RT1.B^L (Rattus norvegicus, UniProt P20037+P29826).
T1 sequence (P20037 24-256): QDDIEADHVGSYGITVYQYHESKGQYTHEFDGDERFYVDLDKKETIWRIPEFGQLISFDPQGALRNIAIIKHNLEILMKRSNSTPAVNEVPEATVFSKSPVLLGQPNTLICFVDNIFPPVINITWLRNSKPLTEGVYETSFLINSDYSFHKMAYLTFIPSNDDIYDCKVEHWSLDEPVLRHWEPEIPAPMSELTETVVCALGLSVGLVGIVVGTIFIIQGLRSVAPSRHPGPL
T1 sequence (P29826 28-263): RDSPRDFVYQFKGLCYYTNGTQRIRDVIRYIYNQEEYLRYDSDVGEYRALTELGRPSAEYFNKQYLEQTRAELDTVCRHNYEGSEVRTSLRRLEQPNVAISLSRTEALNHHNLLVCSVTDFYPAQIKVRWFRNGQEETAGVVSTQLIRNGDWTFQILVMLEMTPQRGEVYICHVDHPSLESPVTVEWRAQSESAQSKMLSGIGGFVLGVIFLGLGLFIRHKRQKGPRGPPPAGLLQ
Description: MHC-peptide competition binding assay on isolated RT1.B^L molecules. The arrangement: species or system Lewis rat. From the text: Because the rat self-antigen to which the A2b T-clone is reactive is not known at present time, the present inventors have designed a computer search strategy based on the interactions of the mycobacterial hsp65 178-186 peptide within the trimolecular complex of MHC class II (RT1.B^L)-mycobacterial hsp65 178-186-T-cell receptor of clone A2b, to identify relevant candidate arthritis-associated antigens that can serve as target for autoimmune T-cell mediated tissue destruction in arthritis. Within the mycobacterial hsp65 178-186 sequence, residues involved in MHC binding have been identified by using an MHC-peptide binding assay on isolated MHC class II RT1.B^L proteins. The residues which have an important role in determining the RT1.B^L binding affinity of the mycobacterial hsp65 178-186 peptide, the so-called MHC anchor residues were determined. By studying the MHC-peptide binding affinities of other non-related peptides, a general MHC-peptide binding motif for the Lewis rat RT1.B1 molecule was defined (Wauben et al., Int. Immunol. 9:281 (1997)). For the definition of residues within the minimal core sequence mycobacterial hsp65 180-186, interacting with the T-cell receptor of the A2b T cell clone, the results derived from MHC-peptide binding assays, and proliferation assays of the A2b T cell clone were integrated.
#RT1.B^L binding affinity is expressed as 50%ID (=inhibitory dose). The 50%ID value indicates the concentration of peptide needed to inhibit 50% binding of the marker peptide in a competition assay on isolated RT1.B^L molecules.

Assay [2] deals with DRB1*0401 (Homo sapiens, UniProt P01903+P01911, A100K/A169T/F76Y/I96L/K127E/L162R/M171V/N62H/P40V/Q125Y/R42H/S133A/S149N/S66Y/V115G/V209L/W38E). The assay can be described thus: MHC-peptide competition binding assay on isolated DRB1*0401 molecules. The settings on record: DRB1*0401 1 μM, biotinylated HA-marker peptide 100 nM, peptide 0-256 μM; read-out: DRB1*0401 binding (IC50). On the procedure:
T-cell responses to the selected peptides in patients are analysed by studying T-cell proliferation of peripheral blood lymphocytes (PBL) and synovial fluid derived cells. […] In these human studies the peptides are tested as 15-mers containing the 9-mer sequence of Table 2 as core sequence. […] The MHC binding affinity of the selected peptides is analysed for the most-common MHC class II-arthritis associations. […] The peptide binding affinity is tested in a MHC-peptide competition assay on isolated MHC molecules in the presence of a labelled marker peptide.
# MHC-peptide binding was measured as described in Wauben et al., Int. Immunol. […] Peptide binding is expressed as tire IC50.

In assay [3] the test system is peripheral blood lymphocytes (PBL) of RA/JCA patients. The assay can be described thus: 6-days proliferation assay on PBLs of RA and JCA patients. The class given is cell-based, human. As to conditions: number of patients with PBL proliferation >2 times background; 15-mers at 1 μg/ml and 10 μ/ml. On the procedure: T-cell responses to the selected peptides in patients are analysed by studying T-cell proliferation of peripheral blood lymphocytes (PBL) and synovial fluid derived cells. […] In these human studies the peptides are tested as 15-mers containing the 9-mer sequence of Table 2 as core sequence. […] This is further strengthened by the fact that, the patients were not selected for having a certain MHC haplotype. The MHC binding affinity of the selected peptides is analysed for the most-common MHC class II-arthritis associations. In Table 3 the peptide binding affinity for DRB1*0401 is shown as an example. The peptide binding affinity is tested in a MHC-peptide competition assay on isolated MHC molecules in the presence of a labelled marker peptide. The fact that of the n=12 peptides selected for binding to the rat DQ equivalent RT1.B^1, n=11 peptides also bind DRB1*0401, further confirms the promiscuous MHC binding of the selected peptides. This ensures a wide applicability of the peptides for prophylaxis, treatment, monitoring and/or diagnosis of the disease.
^ Indicated are the numbers of patients responding to tire peptides as defined in a 6-days proliferation assay on PBLs. Responses were considered positive if the proliferation (as measured by ^3H-thymidine incorporation) was >2 times background proliferation. Peptides were tested in concentrations of 1 μg/ml and 10 μ/ml.

The test system of assay [4] is T cell clone A2b. Description: Recognition by A2b T-cell clone: proliferation and/or activation marker expression. It is filed as cell-based, Lewis rats. As to conditions: positive: proliferation more than 2 times background in 2 of 4 experiments and/or activation marker upregulation in 2 of 3 experiments. How it is done:
As an immediate read-out for mimicry peptides T-cell activation is measured by proliferation, TcR downregulation, expression of activation markers, and cytokines responses of clone A2b. In addition A2b-like T cells from arthritic rats are isolated, and activation of such cells is measured by, proliferation, TcR downregulation, expression of activation markers, and cytokines responses. Furthermore, T-cell lines are generated after immunisation with MT/IFA or selected peptides/DDA. The cross-reactive nature of the peptide specific T-cell responses is analysed in vitro by determining the recognition of both the self peptide as well as the mycobacterial hsp65 178-186 peptide. After testing the panel of n=65 peptides for induction of proliferation of T cell clone A2b, and/or induction of expression of activation markers, n=20 peptides (SEQ ID NOs: 15, 19, 20, 21, 22, 23, 24, 26, 30, 31, 32, 33, 35, 49, 51, 61, 63, 65, 67, 69) were considered positive. Criteria for positivity were that in 2 out of 4 experiments the induced proliferation was more than 2 times background proliferation as measured by ^3H-thymidine incorporation, and/or that in 2 out of 3 experiments upregulation of an activation marker was detectable by FACS analysis.

Assay [5] concerns arthritis. The assay can be described thus: Arthritis induction by immunisation with peptide in DDA adjuvant. It is filed as in vivo. As to conditions: rats with clinical arthritis/rats immunised; 50 μg peptide in 100 μl DDA, one hind footpad. How it is done:
To check the arthritogenic potential of the selected peptides, rats are immunised with 50 μg peptide in 100 μl DDA adjuvant in one hind footpad. […] Two of the five peptides show defined clinical arthritis. * Arthritis is induced by Immunisation of 50 μg peptide in 100 μl DDA adjuvants in one hind footpad and scored upon clinical examination.

Assay [6] deals with DTH reaction. The assay can be described thus: Delayed type hypersensitivity reaction after peptide/DDA immunisation. The class given is in vivo, rats. As to conditions: challenge day 72, peptide/saline s.c. in ear; measured 24 and 48 hr. How it is done: # DTH (Delayed type hypersensitivity) reactions are induced at day 72 after immunisation of peptide/DDA, by subcutaneous injection of the peptide/saline in the ear. DTH are measured 24 and 48 hr after challenge.

The subject of assay [7] is adjuvant arthritis. Description: Nasal peptide administration in the adjuvant arthritis model. The class given is in vivo, rats. As to conditions: for Day of onset / Arthritis score: 100 μg peptide nasal at days 0, 3, 7, 11, mean±sd, n=4 rats; for Arthritis score: scale 0-16. How it is done:
The potential arthritis protective qualities of selected peptides/proteins are tested through nasal or oral tolerance induction in the adjuvant arthritis model.
* Adjuvant arthritis is induced at day 0 by immunisation of MT/IFA (5 mg/ml MT) at the base of the tail. At days 0, 3, 7 and 11, 100 μg peptide in 10 μl saline is administered in the nostrils. Arthritis is scored upon clinical examination on a scale from 0-16. Data are expressed as mean±sd (n=4 rats/group).

The test system of assay [8] is T cells from inguinal and popliteal lymph nodes and spleen. The assay can be described thus: T-cell recognition (proliferation) during adjuvant arthritis time course. The class given is cell-based, Lewis rats. The settings on record: positive: proliferation more than 1.5 times background in more than 25% of organs; days 14, 19, 21, 32, 39.

Ends that are not written are not given here.

By IC50 is commonly meant the concentration needed to halve the response being measured.

The sequence AFGLQLELT [SEQ ID NO: 4, AFGLQLELT] yielded an IC50 in assay [1] of 64 to 128 µM.
As to “FFYFFTGSSQLEFDP [SEQ ID NO: 70, FFYFFTGSSQLEFDP]”, the IC50 in assay [2] is below 8 µM. For the same sequence, in assay [3], the “JCA patients responding (n = 6 tested)” value turned out to be 2 and the “RA patients responding (n = 39 tested)” value is recorded as 29^.
Consider “LKSVNGQIE (listed as Rattus sp.) [SEQ ID NO: 15]”, for which, in assay [4], the “Recognition by T cell clone A2b” value is “positive”. For the same sequence, in assay [5], the “Arthritis Induction” value is recorded as 0/4. Besides, the DTH reaction in assay [6] is on record as 2/2. For the same sequence, in assay [7], the Day of onset was 15.0 ± 1.7 and the Arthritis score is recorded as 4.3 ± 4.8. In addition, in assay [7] (in words), the “Protective effect in adjuvant arthritis upon nasal administration” value is on record as “protective effect”.
For the sequence “NAMLKSICEVLDLER [SEQ ID NO: 81, NAMLKSICEVLDLER]”, in assay [2], the IC50 was above 256 µM. Moreover, in assay [3], the “JCA patients responding (n = 6 tested)” value was 1 and the “RA patients responding (n = 39 tested)” value came out at 2.
Consider “SAFWPSLPSYLDAAY [SEQ ID NO: 71, SAFWPSLPSYLDAAY]”, for which the IC50 in assay [2] lay within 8 to 16 µM. Moreover, in assay [3], the “RA patients responding (n = 39 tested)” value was determined as 4.
The corresponding values for “SSFWPSLPSGVDAAY [SEQ ID NO: 73, SSFWPSLPSGVDAAY]” are 16 to 32 µM and 4.
TAGLQLELT [SEQ ID NO: 5, TAGLQLELT] returned an IC50 in assay [1] of 64 to 128 µM.
For TFALQLELT [SEQ ID NO: 6, TFALQLELT], the IC50 in assay [1] is 32 to 64 µM.
Consider TFGAQLELT [SEQ ID NO: 7, TFGAQLELT], for which the IC50 in assay [1] is 8 to 16 µM.
Sequence TFGLALELT [SEQ ID NO: 8, TFGLALELT] yielded an IC50 in assay [1] above 256 µM.
With TFGLQAELT [SEQ ID NO: 9, TFGLQAELT], the IC50 in assay [1] is 32 to 64 µM.
For the sequence TFGLQLALT [SEQ ID NO: 10, TFGLQLALT], the IC50 in assay [1] fell in the range of 128 to 256 µM.
As to TFGLQLEAT [SEQ ID NO: 11, TFGLQLEAT], in assay [1], the IC50 fell in the range of 32 to 64 µM.
The sequence TFGLQLELA [SEQ ID NO: 12, TFGLQLELA] showed an IC50 in assay [1] of 32 to 64 µM.
On to “TFGLQLELT [SEQ ID NO: 3, TFGLQLELT, reference compound]”, for which the IC50 in assay [1] was 32 to 64 µM.
For the sequence “VQTAVTNID (listed as Rattus sp.) [SEQ ID NO: 53]”, the “Arthritis Induction” value in assay [5] was 0/4. In addition, in assay [8], the “T-cell recognition during adjuvant arthritis” value is “positive”. Further, the DTH reaction in assay [6] is on record as 2/2.
For “VSSFSLNVE (listed as Rattus sp.) [SEQ ID NO: 26]”, the “Recognition by T cell clone A2b” value in assay [4] is “positive”. Further, the “Arthritis Induction” value in assay [5] is reported as 0/4. Moreover, the DTH reaction in assay [6] was 2/2. Further, in assay [7], the Day of onset was determined as 13.0 ± 0 and the Arthritis score is on record as 11.0 ± 3.5.
Regarding “WPSLPSGLD (listed as Rattus sp.) [SEQ ID NO: 50]”, the “Arthritis Induction” value in assay [5] is given as 2/4. Moreover, the “T-cell recognition during adjuvant arthritis” value in assay [8] was “positive”. For the same sequence, the DTH reaction in assay [6] is reported as 0/2. Further, in assay [7], the Day of onset was 14.3 ± 2.0 and the Arthritis score was 11.3 ± 3.8.
Turning to “WPSLPSNMD (listed as Rattus sp.) [SEQ ID NO: 48]”, the “Arthritis Induction” value in assay [5] is 1/4. In addition, the DTH reaction in assay [6] is reported as 0/2. In addition, in assay [7], the Day of onset was determined as 13.3 ± 1.0 and the Arthritis score is given as 10.5 ± 1.7.
